We go through two compounds from paper doi:10.1101/2025.08.20.670845v1 (biorxiv, 2025).

Broadly, the EC50 is the concentration needed to bring the measured effect to its halfway point. A low value points to an effect from little substance.

Assay in all cases: G-Flamp2 cAMP biosensor fluorescence in HeLa cells expressing the receptor
Common to all, as to format: cell-based

Assay [1] deals with T1, AgOctβ2R (AgOctβ2) (Anopheles gambiae, UniProt F5HKI1).
T1 sequence (F5HKI1 1-526): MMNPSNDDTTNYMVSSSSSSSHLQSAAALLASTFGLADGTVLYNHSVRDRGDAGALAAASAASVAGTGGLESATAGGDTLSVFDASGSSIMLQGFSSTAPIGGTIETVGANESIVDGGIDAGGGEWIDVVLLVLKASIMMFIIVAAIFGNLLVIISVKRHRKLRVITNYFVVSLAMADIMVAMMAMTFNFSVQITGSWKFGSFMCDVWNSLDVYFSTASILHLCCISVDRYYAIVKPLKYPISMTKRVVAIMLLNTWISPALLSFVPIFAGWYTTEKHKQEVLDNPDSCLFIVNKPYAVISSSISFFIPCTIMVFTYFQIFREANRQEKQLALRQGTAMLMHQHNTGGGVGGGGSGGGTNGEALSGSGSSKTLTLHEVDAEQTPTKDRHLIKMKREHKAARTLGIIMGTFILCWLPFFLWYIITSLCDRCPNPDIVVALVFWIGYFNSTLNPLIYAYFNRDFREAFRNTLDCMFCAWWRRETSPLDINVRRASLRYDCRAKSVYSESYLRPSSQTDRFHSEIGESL

The target in assay [2] is T2, VdOctβ2 (Varroa destructor, UniProt A0A7M7KEY3).
T2 sequence (A0A7M7KEY3 1-439): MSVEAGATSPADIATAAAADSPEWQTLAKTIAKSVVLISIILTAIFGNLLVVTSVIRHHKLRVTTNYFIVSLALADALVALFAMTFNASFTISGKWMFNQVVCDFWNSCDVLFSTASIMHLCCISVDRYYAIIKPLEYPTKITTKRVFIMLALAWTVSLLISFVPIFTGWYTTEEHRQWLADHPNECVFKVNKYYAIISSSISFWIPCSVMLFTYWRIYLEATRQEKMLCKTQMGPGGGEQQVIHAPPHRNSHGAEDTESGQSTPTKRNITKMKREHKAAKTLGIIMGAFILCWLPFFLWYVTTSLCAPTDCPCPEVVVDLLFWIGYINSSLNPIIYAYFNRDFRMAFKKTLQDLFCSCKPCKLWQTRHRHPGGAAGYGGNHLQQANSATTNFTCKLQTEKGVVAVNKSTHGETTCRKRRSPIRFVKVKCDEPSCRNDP

Assay [3] concerns the target T3, AgOctβ2R (AgOctβ2) (Anopheles gambiae, UniProt F5HKI1, N432C).
T3 sequence (F5HKI1 1-526 N432C): T1 sequence (F5HKI1 1-526)

The target of assay [4] is T4, AmOctβ2 (Apis mellifera, UniProt A0A7M7GMY8).
T4 sequence (A0A7M7GMY8 1-438): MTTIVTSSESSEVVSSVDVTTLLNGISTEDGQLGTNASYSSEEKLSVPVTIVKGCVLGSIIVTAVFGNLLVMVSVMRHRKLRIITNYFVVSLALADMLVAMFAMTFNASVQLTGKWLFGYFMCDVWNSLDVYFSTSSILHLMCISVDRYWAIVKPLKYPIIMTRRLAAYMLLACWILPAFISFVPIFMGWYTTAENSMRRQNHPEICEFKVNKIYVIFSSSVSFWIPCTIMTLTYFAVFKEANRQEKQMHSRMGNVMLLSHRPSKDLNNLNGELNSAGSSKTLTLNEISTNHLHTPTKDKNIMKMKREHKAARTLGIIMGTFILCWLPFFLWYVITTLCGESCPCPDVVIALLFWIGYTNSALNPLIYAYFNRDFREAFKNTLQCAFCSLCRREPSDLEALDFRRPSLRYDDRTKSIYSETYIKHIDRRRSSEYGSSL

For assay [5], the target named is T5, AgOctβ2R (AgOctβ2) (Anopheles gambiae, UniProt F5HKI1, L290E).
T5 sequence (F5HKI1 1-526 L290E): T1 sequence (F5HKI1 1-526)

Regarding `NCC(O)c1ccc(O)cc1` (stereo not drawn) [octopamine], the EC50 in assay [1] was found to be 14.7 nM; in assay [2] it was 47.1 nM; in assay [3], 57.3 nM; in assay [4], 45.6 nM.

On to `Cc1ccc(/N=C/N(C)/C=N/c2ccc(C)cc2C)c(C)c1` [amitraz], for which the concentration for a half-maximal effect (EC50) in assay [1] was found to be 10.8 nM; in assay [2], 1.9 nM; in assay [5], 85.4 nM; in assay [3], 118 nM; in assay [4], 12.1 nM.
